Measured values: patent publication US9463216B2 (priority 2012, dated 2016)

Experiments:
[1] = target: recombinant LT (PA + LF) (Bacillus anthracis, UniProt P13423); design: species or system BALB/cJ mice; settings: mouse, in vivo
[2] = target: PA (Bacillus anthracis, UniProt P13423); assay type: binding, B. anthracis
[3] = system: PA; assay type: biochemical, B. anthracis
[4] = system: PA uptake by J774 macrophages, ANTXR2-expressing (CCHO) and ANTXR2-null (PR230) chinese hamster ovary cells; assay type: cell-based, chinese hamster (CHO cells)
[5] = system: J774 macrophages and PR230 cells; assay type: cell-based, chinese hamster (PR230 cells)
[6] = target: lethal toxin (PA + LF) (Bacillus anthracis, UniProt P13423)
Chain of lethal toxin (PA + LF) (P13423 30-764 limits assumed): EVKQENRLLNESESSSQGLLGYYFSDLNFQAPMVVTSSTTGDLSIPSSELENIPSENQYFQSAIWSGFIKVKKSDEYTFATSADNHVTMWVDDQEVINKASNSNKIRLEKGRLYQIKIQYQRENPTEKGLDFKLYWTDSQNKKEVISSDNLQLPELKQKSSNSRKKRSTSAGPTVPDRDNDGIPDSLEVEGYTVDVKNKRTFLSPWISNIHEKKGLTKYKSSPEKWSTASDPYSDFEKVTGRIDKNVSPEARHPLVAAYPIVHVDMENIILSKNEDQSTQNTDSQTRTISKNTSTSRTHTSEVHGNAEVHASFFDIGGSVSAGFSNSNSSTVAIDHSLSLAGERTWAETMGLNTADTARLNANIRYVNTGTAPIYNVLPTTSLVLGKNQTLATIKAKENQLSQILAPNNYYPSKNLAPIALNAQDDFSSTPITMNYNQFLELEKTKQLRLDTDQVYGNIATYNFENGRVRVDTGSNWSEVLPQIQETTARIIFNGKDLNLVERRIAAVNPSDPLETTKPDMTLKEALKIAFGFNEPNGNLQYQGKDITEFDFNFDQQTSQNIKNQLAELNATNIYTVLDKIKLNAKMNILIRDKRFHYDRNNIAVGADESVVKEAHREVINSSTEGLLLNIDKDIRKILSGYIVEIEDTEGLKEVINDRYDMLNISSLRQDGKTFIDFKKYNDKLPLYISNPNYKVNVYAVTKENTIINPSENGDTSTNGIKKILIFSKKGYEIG

Chain of recombinant LT (PA + LF) (P13423 30-764 limits assumed): as above
Chain of PA (Bacillus anthracis, UniProt P13423) (P13423 30-764 limits assumed): as above

For N[C@@H](CCC(=O)O)C(=O)O [L-Glu, reference compound], the “protection of mice from LT” value [1] was “did not protect mice from LT”.

“bovine serum albumin [reference compound]” was tested, and the “protection of mice from LT” value [1] was “did not protect mice from LT”.

γ-DPGA [Compound 2] was tested, and the “form complexes with PA” value [2] was “can form complexes with PA”, the “formation of co-complexes with PA after pretreatment with Cap D” value [2] was “prevents formation of co-complexes with PA” and the “inhibitory activity after treatment with Cap D” value [1] was “abolished the inhibitory activity”. For the same molecule, the “protection of mice from LT” value [1] was “completely protected”, the “effect on PA-binding to ANTXR2 or LF, PA oligomerization, or channel formation in vitro” value [3] was “do not affect” and the “effect on cell uptake of PA” value [4] was “prevent proper cell uptake”. The “stimulation of PA internalization after pretreatment with Cap D” value [4] was “eliminates the stimulation of PA internalization”, the “binding to J774 macrophages and PR230 cells” value [5] was “equal affinity” and the “binding to Pronase-treated PR230 cells” value [5] was “significantly reduced”. For the same molecule, the “LT inhibitory activity of metal ion chelates” value [6] was “only the Fe(III) chelate had LT inhibitory activity”, the “inhibit LT-mediated cytolysis in bone marrow macrophage cells” value [6] was “could inhibit” and the “inhibition of PA oligomers” value [6] was “equally inhibited”.

With Fe(III) [reference compound] the “concentration at which Fe(III) alone may inhibit LT” value [6] was 10 mM, the “inhibitory Fe(III) concentration relative to concentrations effective in the Fe(III) co-complexes of compounds 1, 2, and 3” value [6] was 10^3-10^4 fold and the “inhibitory activity of Fe(III) alone” value [6] was “did not possess inhibitory activity”.

For γ-DLPGA [Compound 1], the “affinity for PA, higher than compound 2” value [2] was 10 fold, the “form complexes with PA” value [2] was “can form complexes with PA” and the “protection of mice from LT” value [1] was “completely protected”. For the same molecule, the “effect on PA-binding to ANTXR2 or LF, PA oligomerization, or channel formation in vitro” value [3] was “do not affect”, the “effect on cell uptake of PA” value [4] was “prevent proper cell uptake” and the “LT inhibitory activity of metal ion chelates” value [6] was “only the Fe(III) chelate had LT inhibitory activity”. The “inhibit LT-mediated cytolysis in bone marrow macrophage cells” value [6] was “could inhibit” and the “inhibition of PA oligomers” value [6] was “equally inhibited”.
